Consider four compounds from patent US4083993A, “Compositions containing benzoylacetonitrile and method of use to treat inflammation” (American Cyanamid Co., priority 1977, dated 1978).

The data set deals with adjuvant induced arthritis. As to the kind of experiment: adjuvant induced arthritis in rats (Freund's adjuvant, injected right hind paw; chronic inflammation with joint destruction). The format is in vivo, royal Hart, Wistar strain rats. The note with it: oral, once daily days 0-13. As to the method:
Groups of three royal Hart, Wistar strain rats weighing 200+10 grams each were injected intradermally in the right hind paw with Freund's adjuvant (dried human tubercle bacilli in a mineral oil vehicle) at a dose of 2 mg./kg. of body weight. Test compounds were administered orally in a 1.5% starch vehicle at various doses once daily on days 0 through 13 post challenge. Control rats were treated in a similar manner, but given only starch vehicle. On the 14th and 21st day post challenge the diameter of the injected paw (primary lesion) was measured by micrometer caliper. The volume of inflamed paws were estimated from these measurements and the results are expressed as percent inhibition of swelling as compared to controls. At the same time, the other inflamed sites, such as ears, paws and tail (secondary lesions) were observed and each rat was graded as to degree of inflammation and swelling present. The grading is based on a scale of 0 to 24, where 0 represents a complete absence of induced arthritic nodules and 24 represents the maximum degree of inflammation. The mean grade for each treated group is calculated and the effects of each compound are expressed as percent inhibition of the control grade. Table I records the results of these tests conducted with benzoylacetonitrile, o-fluorobenzoylacetonitrile, m-fluorobenzoylacetonitrile, p-fluorobenzoylacetonitrile, and known anti-inflammatory agents. The active compounds of the present invention suppress the progression of the arthritis and associated joint deterioration.

[1] abbreviates: 25 mg./kg. of body weight, day 14.
Setting [2] is: 25 mg./kg. of body weight, day 21.
The mark [3] stands for this setting: 50 mg./kg. of body weight, day 14.
Setting [4] is: 50 mg./kg. of body weight, day 21.
Where [5] appears, read: 100 mg./kg. of body weight, day 14.
The mark [6] stands for this setting: 100 mg./kg. of body weight, day 21.
[7] abbreviates: 200 mg./kg. of body weight, day 14.
[8] abbreviates: 200 mg./kg. of body weight, day 21.
Where [9] appears, read: 400 mg./kg. of body weight, day 14.
The mark [10] stands for this setting: 400 mg./kg. of body weight, day 21.

For the compound `N#CCC(=O)c1ccccc1` [Benzoylacetonitrile, benzoylacetonitrile], the “Dead/Treated At 21 Days” value reads like this: (25 mg./kg. of body weight) 3/36; (50 mg./kg. of body weight) 6/54; (100 mg./kg. of body weight) 5/36; (200 mg./kg. of body weight) 2/18; (400 mg./kg. of body weight) 3/18. The “% Inhibition of Control Grade (secondary lesion)” value (“% Inhibition of Control Grade” for short) under setting [1] is 40%; the “% Inhibition of Control Grade” value under setting [2] came to 14%; the “% Inhibition of Control Grade” value under setting [3] worked out at 52%; the “% Inhibition of Control Grade” value under setting [4] was 26%; the “% Inhibition of Control Grade” value under setting [5] is on record as 70%; the “% Inhibition of Control Grade” value under setting [6] amounted to 43%. Also, the “% Inhibition of Control Grade” value turned out to be 70% under setting [7], 43% under setting [8], 84% under setting [9] and 82% under setting [10]. Further, the “% Inhibition of Swelling (primary lesion)” value (“% Inhibition of Swelling” below) stood at 54% under setting [1]; 33% under setting [2]; 51% under setting [3]; 42% under setting [4]; 63% under setting [5]; 48% under setting [6]. Besides, the “% Inhibition of Swelling” value is, setting by setting: under setting [7], 73%; under setting [8], 48%; under setting [9], 81%; under setting [10], 72%. Further, the “Mean Weight Gain” value by setting is: under setting [1], 54 grams; under setting [2], 56 grams; under setting [3], 53 grams; under setting [4], 59 grams; under setting [5], 49 grams; under setting [6], 65 grams. The “Mean Weight Gain” value runs as follows: under setting [7], 56 grams; under setting [8], 81 grams; under setting [9], 31 grams; under setting [10], 72 grams.

For `N#CCC(=O)c1cccc(F)c1` [m-Fluorobenzoylacetonitrile, m-fluorobenzoylacetonitrile], the “Dead/Treated At 21 Days” value (50 mg./kg. of body weight) is recorded as 0/21. Further, the “% Inhibition of Swelling” value by setting is: under setting [3], 40%; under setting [4], 27%. The “Mean Weight Gain” value by setting is: under setting [3], 43 grams; under setting [4], 37 grams.

Regarding `N#CCC(=O)c1ccccc1F` [o-Fluorobenzoylacetonitrile, o-fluorobenzoylacetonitrile], where the note is “50 mg./kg. of body weight”, the “Dead/Treated At 21 Days” value is 1/18. Under setting [3], the “% Inhibition of Swelling” value was 63% and the “Mean Weight Gain” value is recorded as 71 grams. Further, under setting [4], the “% Inhibition of Swelling” value is on record as 49% and the “Mean Weight Gain” value stood at 72 grams.

Turning to `N#CCC(=O)c1ccc(F)cc1` [p-Fluorobenzoylacetonitrile, p-fluorobenzoylacetonitrile], the “Dead/Treated At 21 Days” value was 1/18 (25 mg./kg. of body weight); 2/36 (50 mg./kg. of body weight); 4/18 (100 mg./kg. of body weight); 3/18 (200 mg./kg. of body weight); 3/18 (400 mg./kg. of body weight). Besides, the “% Inhibition of Control Grade” value under setting [1] was found to be 25%; the “% Inhibition of Control Grade” value under setting [2] is on record as 0%; the “% Inhibition of Control Grade” value under setting [3] turned out to be 13%; the “% Inhibition of Control Grade” value under setting [4] amounted to 0%; the “% Inhibition of Control Grade” value under setting [5] was found to be 44%; the “% Inhibition of Control Grade” value under setting [6] worked out at 10%. In addition, the “% Inhibition of Control Grade” value is reported as 63% under setting [7], 16% under setting [8], 72% under setting [9] and 45% under setting [10]. Further, the “% Inhibition of Swelling” value by setting is: under setting [1], 33%; under setting [2], 17%; under setting [3], 56%; under setting [4], 39%; under setting [5], 46%; under setting [6], 32%. Besides, the “% Inhibition of Swelling” value turned out to be 52% under setting [7], 32% under setting [8], 75% under setting [9] and 63% under setting [10]. The “Mean Weight Gain” value came to 55 grams under setting [1]; 48 grams under setting [2]; 61 grams under setting [3]; 58 grams under setting [4]; 63 grams under setting [5]; 71 grams under setting [6]. Besides, the “Mean Weight Gain” value runs as follows: under setting [7], 67 grams; under setting [8], 62 grams; under setting [9], 42 grams; under setting [10], 64 grams.
